Measured values published in patent US8309593B2, “2-acylaminopropoanol-type glucosylceramide synthase inhibitors” (Genzyme Corporation, priority 2008, dated 2012).
pIC50: −log10 of the molar value.

Experiments:
GM3 = GM3 Elisa assay; type: cell-based; conditions: Table 3 (title: IC 50 Values); read-out: IC50_uM_Mean
Description: B16-FO cells from ATCC (American Tissue Culture Collection) were grown in DMEM media (ATCC) with 10% Fetal Bovine Serum (Hyclone) and Pen/Step/Glutamine (Biowhittaker). 4000 cells per well were plated on collagen coated plates (BD) and allowed to attach for 6 hours in an incubator (37 degrees, 5% CO2). After 6 hours the compounds and controls were added to the wells, the plates mixed and returned to the incubator for 2 days. Day of assay the cells were fixed for 20 minutes with 1% formaldehyde and then washed with Tris Buffered Saline (TBS) 3 times, 150 μl of TBS was left in the wells and 50 μl of goat serum (Invitrogen) was added, the plates mixed and incubated for 1 hour at room temperature. The plates were flicked and the cells incubated with the monoclonal Antibody to GM3 (NeuAc) (Cosmo) for 45 minutes as room temperature. The plates were then washed 3 times with TBS, leaving 150 μl of TBS in the wells and Peroxidase AffinPure F (ab′) 2 frag Gt Anti-mouse IgM, μ Chain Specific (Jackson Immuno Research) was added in 50 μl, the plates mixed and incubated for 45 minutes at room temperature. The plates were washed 3 times with TBS, flicked and blotted and 100 μl of Quantablu (Pierce) was added to the wells and incubated for 1 hour then read on a Fluorometer at Ex 325 and Em 420. The data was then analyzed using standard programs.

jck mice = experiment: PKD mouse model (jck mice, compound in feed); type: in vivo; conditions: for BUN / Body weight / Cystic volume / K/BW ratio: 0.225% Compound A in feed
Description: jck mice was administered Compound A ad libitum in feed (0.225% Compound A mixed with a standard diet chow in powdered format) from 26-64 days of age. Control jck mice were fed a control powdered diet from 26-64 days of age. At 63 days of age, animals were transferred to metabolic cages for 24 hour urine collection. At 64 days of age, animals were sacrificed by CO2 administration. Blood was collected by heart puncture for serum isolation. Kidneys were isolated and bisected; half of each kidney was fixed in 4% paraformaldehyde in PBS overnight for paraffin embedding and H&E staining.
Total body weight and kidney weight were determined at sacrifice.
Cyst volume was measured by quantitating the percentage of cystic area in histological sections of kidneys from the treated and control animals, multiplied by the kidney/body weight ratio.
Blood urea nitrogen (BUN) levels were determined in serum samples derived from animals at sacrifice.

[1] = female jck mice, 26-64 days of age
[2] = male jck mice, 26-64 days of age

`CC(O)(CCCCCC(=O)N[C@H](CN1CCCC1)[C@@H](O)c1ccc2c(c1)OCCO2)C1CCCC1` (stereo partly shown) [Compound 633] was tested. Which pIC50 (GM3) did it give?
The pIC50 was 6.00 to 7.00.

`O=C(CCCCCCOCC(F)(F)F)N[C@H](CN1CCCC1)[C@@H](O)c1ccc2c(c1)OCCO2` [Compound 634] was tested. Which pIC50 (GM3) did it give?
The pIC50 was 6.00 to 7.00.

How did the pIC50 (GM3) turn out when `O=C(N[C@H](CN1CCCC1)[C@H](O)c1ccc2c(c1)OCCO2)[C@H]1CC[C@@H](C(=O)c2ccc(F)cc2)C1` [Compound 635] was run?
The pIC50 was 5.00 to 5.52.

How did the pIC50 (GM3) turn out when `CC(O)(CCCCCC(=O)N[C@H](CN1CCCC1)[C@@H](O)c1ccc2c(c1)OCCO2)C1CCCCC1` (stereo partly shown) [Compound 641] was run?
The pIC50 was at least 7.00.

How did the pIC50 (GM3) turn out when `Cc1noc(CCCCC(=O)N[C@@H](CN2CCCC2)C(O)c2ccc3c(c2)OCCO3)n1` (stereo partly shown) [Compound 652] was run?
Its pIC50 is 5.00 to 5.52.

With `O=C(CCCCCC(=O)c1ccc(F)cc1)NC(CN1CC[C@H](O)C1)[C@H](O)c1ccc2c(c1)OCCO2` (stereo partly shown) [Compound 653] as the molecule, how does the pIC50 (GM3) read?
The pIC50 was at least 7.00.

With `O=C(CCCOc1ccc(F)cc1)N[C@@H](CN1CC[C@H](O)C1)[C@H](O)c1ccc2c(c1)OCCO2` [Compound 656] as the molecule, how does the pIC50 (GM3) read?
The pIC50 was at least 7.00.

`CCCCOc1ccc([C@@H](O)[C@@H](CN2CCC(F)C2)NC(=O)CCCCC(=O)c2ccc(F)cc2)cc1` (stereo partly shown) [Compound 658] was tested. Which pIC50 (GM3) did it give?
The pIC50 was 6.00 to 7.00.

How did the pIC50 (GM3) turn out when `CC(=O)CCCCCC(=O)N[C@H](CN1CCCC1)[C@@H](O)c1ccc(OC(F)(F)F)cc1` [Compound 665] was run?
Its pIC50 is 5.00 to 5.52.

`COc1ccc(C(=O)CCCCCC(=O)N[C@H](CN2CCCC2)[C@@H](O)c2ccc(OC(F)(F)F)cc2)cc1` [Compound 666] was tested. Which pIC50 (GM3) did it give?
Its pIC50 is 6.00 to 7.00.

With `CCCCCCCC(=O)N[C@H](CN1CCCC1)[C@@H](O)c1ccc(OC(F)(F)F)cc1` [Compound 667] as the molecule, how does the pIC50 (GM3) read?
The pIC50 was 6.00 to 7.00.

With `COc1cc([C@H](O)[C@@H](CN2CCCC2)NC(=O)CCCCCC(C)=O)cc(OC)c1OC` [Compound 671] as the molecule, how does the pIC50 (GM3) read?
Its pIC50 is 5.00 to 5.52.

`COc1ccc(OCCC(=O)N[C@@H](CN2CCCC2)[C@@H](O)c2ccc3c(c2)OCCO3)cc1` [Compound 674] was tested. Which pIC50 (GM3) did it give?
Its pIC50 is 5.00 to 5.52.

How did the pIC50 (GM3) turn out when `COc1ccc(OCCC(=O)N[C@@H](CN2CCCC2)[C@@H](O)c2ccc3c(c2)OCCO3)cc1` [Compound 675] was run?
Its pIC50 is 5.00 to 5.52.

`COc1ccc(OCCC(=O)N[C@H](CN2CCCC2)[C@@H](O)c2ccc3c(c2)OCCO3)cc1` [Compound 676] was tested. Which pIC50 (GM3) did it give?
Its pIC50 is 5.00 to 5.52.

`CCCCCCCCCCCCCCCCC(=O)N[C@H](CN(C)Cc1ccco1)[C@H](O)c1ccc2c(c1)OCCO2` [Compound 683] was tested. Which pIC50 (GM3) did it give?
The pIC50 was 5.00 to 5.52.

With `CCCCCCCCCCCCCCCC(=O)N[C@H](CN(C)C(C)C)[C@H](O)c1ccc2c(c1)OCCO2` [Compound 684] as the molecule, how does the pIC50 (GM3) read?
The pIC50 was 6.00 to 7.00.

How did the pIC50 (GM3) turn out when `CCCCCCCCCCCCCCCC(=O)N[C@H](CN(C)C1CCCC1)C(O)c1ccc2c(c1)OCCO2` (stereo partly shown) [Compound 685] was run?
Its pIC50 is 5.00 to 5.52.

How did the BUN (jck mice; [1]) turn out when `CCCCCCCCC(=O)N[C@H](CN1CCCC1)[C@H](O)c1ccc2c(c1)OCCO2` [Compound A, N-((1R,2R)-1-(2,3-dihydrobenzo[b][1,4]dioxin-6-yl)-1-hydroxy-3-(pyrrolidin-1-yl)propan-2-yl)nonanamide] was run?
Its BUN is 34.67 ± 9.41 mg/dL.

And the Body weight (jck mice; [1])?
Its Body weight is 15.93 ± 1.65 g.

And the Cystic volume (jck mice; [1])?
Its Cystic volume is 0.58 ± 0.29 % BW.

What about the K/BW ratio (jck mice; [1]) of the same molecule?
The K/BW ratio was 3.57 ± 0.58 %.

What about the total body weight (jck mice; jck mice, 0.225% in feed, 26-64 days of age, at sacrifice, vs control, p-value<0.05, two-tailed t-test) of the same molecule?
The total body weight was “statistically significant decrease”.

What about the cyst volume (jck mice; jck mice, 0.225% in feed, 26-64 days of age, percentage cystic area x kidney/body weight ratio, vs control, p-value<0.05) of the same molecule?
The cyst volume was “significant decrease”.

What about the “Blood urea nitrogen (BUN) levels” value (jck mice; jck mice, 0.225% in feed, 26-64 days of age, serum at sacrifice, vs untreated controls, p-value<0.05) of the same molecule?
The value was “significant reduction”.

What about the cystic disease (jck mice; jck mice, 0.225% in feed, as measured by kidney/body weight ratio and cyst volume, males and females) of the same molecule?
The cystic disease was “statistically significant reduction”.

And the renal function (jck mice; jck mice, 0.225% in feed, treated animals relative to controls, males and females)?
The renal function was “improved renal function”.

What about the BUN (jck mice; [2]) of the same molecule?
The BUN was 39.25 ± 10.70 mg/dL.

And the Body weight (jck mice; [2])?
Its Body weight is 18.43 ± 1.82 g.

What about the Cystic volume (jck mice; [2]) of the same molecule?
Its Cystic volume is 0.88 ± 0.23 % BW.

And the K/BW ratio (jck mice; [2])?
The K/BW ratio was 4.46 ± 0.46 %.
